Results taken from US20030194719A1, “Tpst-assay for diagnosis of autism and related disorders” (priority 2000, published 2003).

Each compound was assayed on Tyrosyl protein sulphotransferase (TPST) (assay: TPST activity assay in platelets from normal healthy blood donors (35S transfer from PAPS35 to EAY substrate)). Settings: Table 5; fatty acid 0.5 μM.
Type: biochemical, human
Description: The activity of sulphotransferases can be measured by monitoring the transfer of ^35S from the sulphate donor, PAPS^35, to the product, in this case the synthetic tyrosine substrate EAY. This assay uses platelets from control subjects (n=5) and those patients suffering from a particular disorder, selected from autism (n=14), irritable bowel syndrome (n=3) schizophrenia (gluten-sensitive)(n=4), food allergy (gluten, milk) (n=3) and depression (n=2).
Reaction mixtures were incubated for 50 minutes at 37° C. and reactions were stopped by barium acetate. Unreacted sulphate, proteins and nucleotides were precipitated by zinc sulphate and barium hydroxide. Within the reaction there is a positive and negative control. The positive control is termed 100%, and represents the total amount of radioactivity present in the hot PAPS^35 sample. The negative control is the “no-enzyme” reaction, this represents the amount of sulphate transferred to the product when no enzyme is present, i.e. the chemical reaction. The blank for the reaction is made up without PAPS^35 and without enzyme.
10 ml of whole blood was taken from patients and the blood cells removed. The remaining plasma was centrifuged at 8000 g for 5 mins to sediment the platelets. This platelet pellet was resuspended in 5 ml 10 mM phosphate buffered saline (PBS) containing 10 mM EDTA, recentrifuged at 2000 g at 4° C. for 30 min. […] The platelets were sonicated for 12×10 second bursts at 4° C. The platelet sonicates were stored in 1 ml portions at −70° C. prior to use.
Substrate: 10 μl EAY (300 μM; poly (Glu, Ala, Tyr) 6:3:1) was used in each test assay, to give a final concentration in the reaction of 20 μM. This solution was made up in MES reaction buffer.
Reaction mixtures were made up as in the table above. To begin the assay, platelet homogenate (20 μl) and PAPS^35 (20 μl) were added at 30-second intervals to a final volume of 150 μl. The reaction mixture was then incubated at 37° C. for 40 min. The reaction is stopped by the addition of 200 μl-barium acetate (0.1 M) and the tubes were vortexed and placed on ice for […].
Unreacted sulphate was then precipitated by the addition of 0.1 M zinc sulphate (200 μl) and 0.1 M barium hydroxide (200 μl). The tubes were vortexed and centrifuged at 6500 rpm for 3 min.
Repeat step 3. Supernatant (500 μl) was then added to scintillation fluid (3.5 ml) and S^35 was counted in a Phillips scintillation counter.
Various compounds were investigated, including fatty acids, flavonoids and amino acids. […] Compounds were tested at the concentrations shown and were dissolved in buffer where possible or ethanol if not.
In the Example shown in Table 6 and FIG. 6 compounds were all dissolved in DMSO and tested at 25 μM.

Compound | TPST activity (0 μM = 100.0)
CC/C=C\C/C=C\C/C=C\C/C=C\C/C=C\C/C=C\CCC(=O)O [DHA, docosahexanoic acid] | 91.8

Same assay, conditions: Table 5; fatty acid 1 μM

Compound | TPST activity (0 μM = 100.0)
CC/C=C\C/C=C\C/C=C\C/C=C\C/C=C\C/C=C\CCC(=O)O [DHA, docosahexanoic acid] | 105.2

Same assay, conditions: Table 5; fatty acid 2.5 μM

Compound | TPST activity (0 μM = 100.0)
CC/C=C\C/C=C\C/C=C\C/C=C\C/C=C\C/C=C\CCC(=O)O [DHA, docosahexanoic acid] | 115.9

Same assay, conditions: Table 5; fatty acid 5 μM

Compound | TPST activity (0 μM = 100.0)
CC/C=C\C/C=C\C/C=C\C/C=C\C/C=C\C/C=C\CCC(=O)O [DHA, docosahexanoic acid] | 109.6

Same assay, conditions: Table 5; fatty acid 10 μM

Compound | TPST activity (0 μM = 100.0)
CC/C=C\C/C=C\C/C=C\C/C=C\C/C=C\C/C=C\CCC(=O)O [DHA, docosahexanoic acid] | 97.0
CCCCC/C=C\C/C=C\C/C=C\CCCCC(=O)O [GLA, gamma linolenic acid] | 78.8
CCCCCC/C=C\CCCCCCCC(=O)O [Palmitoleic] | 99.5

Same assay, conditions: Table 5; fatty acid 25 μM

Compound | TPST activity (0 μM = 100.0)
CC/C=C\C/C=C\C/C=C\C/C=C\C/C=C\C/C=C\CCC(=O)O [DHA, docosahexanoic acid] | 117.8
CCCCC/C=C\C/C=C\C/C=C\CCCCC(=O)O [GLA, gamma linolenic acid] | 72.6
CCCCCC/C=C\CCCCCCCC(=O)O [Palmitoleic] | 95.2

Same assay, conditions: Table 5; fatty acid 50 μM

Compound | TPST activity (0 μM = 100.0)
CC/C=C\C/C=C\C/C=C\C/C=C\C/C=C\C/C=C\CCC(=O)O [DHA, docosahexanoic acid] | 119.4
CCCCC/C=C\C/C=C\C/C=C\CCCCC(=O)O [GLA, gamma linolenic acid] | 71.3
CCCCCC/C=C\CCCCCCCC(=O)O [Palmitoleic] | 93.5

Same assay, conditions: Table 5; fatty acid 100 μM

Compound | TPST activity (0 μM = 100.0)
CC/C=C\C/C=C\C/C=C\C/C=C\C/C=C\C/C=C\CCC(=O)O [DHA, docosahexanoic acid] | 103.3
CCCCC/C=C\C/C=C\C/C=C\CCCCC(=O)O [GLA, gamma linolenic acid] | 61.2
CCCCCC/C=C\CCCCCCCC(=O)O [Palmitoleic] | 81.4

Same assay, conditions: Table 6; 25 μM, dissolved in DMSO; human platelets

Compound | % Control TPST Activity [%]
O=c1cc(-c2cc(O)c(O)c(O)c2O)oc2cc(O)ccc12 [2′,3′,4′,5′,7 OH Flavone] | 38
O=c1c(O)c(-c2ccccc2)oc2ccccc12 [3 OH Flavone] | 96
O=c1cc(-c2ccc(O)c(O)c2)oc2ccccc12 [3′,4′ OH Flavone] | 55
O=c1c(-c2ccc(O)c(O)c2)coc2cc(O)ccc12 [3′,4′,7 OH Isoflavone] | 17
O=c1cc(-c2cc(O)cc(O)c2)oc2cc(O)ccc12 [3′,5′,7 OH Flavone] | 32
O=c1cc(-c2ccccc2)oc2cccc(O)c12 [5 OH Flavone] | 152
O=c1cc(-c2ccccc2)oc2cc(O)c(O)c(O)c12 [5′,6′,7′ OH Flavone] | 1
Oc1cc(O)c2c(c1)O[C@H](c1ccc(O)c(O)c1)[C@@H](O)C2 [(+)-Catechin] | 74
O=c1cc(-c2ccc(O)cc2)oc2cc(O)cc(O)c12 [Apigenin] | 31

Same assay, conditions: Table 7; flavonoid 0.5 μM

Compound | TPST activity (0 μM = 100)
O=c1c(O)c(-c2ccccc2)oc2ccccc12 [3 OH Flavone] | 79
O=c1c(O)c(-c2ccc(O)cc2)oc2cc(O)cc(O)c12 [Kaempferol] | 45.2

Same assay, conditions: Table 7; flavonoid 1 μM

Compound | TPST activity (0 μM = 100)
O=c1c(O)c(-c2ccccc2)oc2ccccc12 [3 OH Flavone] | 92.6
O=c1c(O)c(-c2ccc(O)cc2)oc2cc(O)cc(O)c12 [Kaempferol] | 39.9

Same assay, conditions: Table 7; flavonoid 2.5 μM

Compound | TPST activity (0 μM = 100)
O=c1c(O)c(-c2ccccc2)oc2ccccc12 [3 OH Flavone] | 90.7
O=c1c(O)c(-c2ccc(O)cc2)oc2cc(O)cc(O)c12 [Kaempferol] | 22.3

Same assay, conditions: Table 7; flavonoid 5 μM

Compound | TPST activity (0 μM = 100)
O=c1c(O)c(-c2ccccc2)oc2ccccc12 [3 OH Flavone] | 83
O=c1c(O)c(-c2ccc(O)cc2)oc2cc(O)cc(O)c12 [Kaempferol] | 21.4

Same assay, conditions: Table 7; flavonoid 10 μM

Compound | TPST activity (0 μM = 100)
O=c1c(O)c(-c2ccccc2)oc2ccccc12 [3 OH Flavone] | 97.9
O=c1c(O)c(-c2ccc(O)cc2)oc2cc(O)cc(O)c12 [Kaempferol] | 14.4

Same assay, conditions: Table 7; flavonoid 25 μM

Compound | TPST activity (0 μM = 100)
O=c1c(O)c(-c2ccccc2)oc2ccccc12 [3 OH Flavone] | 101.1
O=c1c(O)c(-c2ccc(O)cc2)oc2cc(O)cc(O)c12 [Kaempferol] | 11

Same assay, conditions: Table 7; flavonoid 50 μM

Compound | TPST activity (0 μM = 100)
O=c1c(O)c(-c2ccccc2)oc2ccccc12 [3 OH Flavone] | 95.5
O=c1c(O)c(-c2ccc(O)cc2)oc2cc(O)cc(O)c12 [Kaempferol] | 7.3

Same assay, conditions: Table 7; flavonoid 100 μM

Compound | TPST activity (0 μM = 100)
O=c1c(O)c(-c2ccccc2)oc2ccccc12 [3 OH Flavone] | 94.4
O=c1c(O)c(-c2ccc(O)cc2)oc2cc(O)cc(O)c12 [Kaempferol] | 2.9
